Laboratory results published in PubChem BioAssay AID330 (DTP/NCI, 2004).
Where “and” joins values, the source holds several entries; their conditions need not be identical. Equal entries are not always repeated. Inconclusive results and toxic doses are left out.

Test system: P388 leukemia ip, CD2F1 mice, survival T/C
Experiment: NCI In Vivo Anticancer Drug Screen. Data for tumor model P388 Leukemia (intraperitoneal) in CD2F1 (CDF1) mice
Settings: endpoint: median survival time, higher = longer survival
Outline: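 Mice carrying the transplanted tumor received test compound or vehicle. Survival was recorded in each group, and the value is the treated-group measurement divided by that of the vehicle-treated control group.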

[1] = dose: 25.0 mg/kg/injection, schedule: Q01DX009 (ip), vehicle: saline
[2] = dose: 50.0 mg/kg/injection, schedule: Q01DX009 (ip), vehicle: saline
[3] = dose: 100.0 mg/kg/injection, schedule: Q01DX009 (ip), vehicle: saline
[4] = dose: 200.0 mg/kg/injection, schedule: Q01DX009 (ip), vehicle: saline
[5] = dose: 60.0 mg/kg/injection, schedule: Q01DX005 (ip), vehicle: saline with Tween-80
[6] = dose: 120.0 mg/kg/injection, schedule: Q01DX005 (ip), vehicle: saline with Tween-80
[7] = dose: 240.0 mg/kg/injection, schedule: Q01DX005 (ip), vehicle: saline with Tween-80
[8] = dose: 50.0 mg/kg/injection, schedule: Q01DX005 (ip), vehicle: Klucel (hydroxypropylcellulose) (HPC)
[9] = dose: 100.0 mg/kg/injection, schedule: Q01DX005 (ip), vehicle: Klucel (hydroxypropylcellulose) (HPC)
[10] = dose: 120.0 mg/kg/injection, schedule: Q01DX005 (ip), vehicle: saline
[11] = dose: 50.0 mg/kg/injection, schedule: Q01DX005 (ip), vehicle: saline with Tween-80
[12] = dose: 200.0 mg/kg/injection, schedule: Q01DX005 (ip), vehicle: Klucel (hydroxypropylcellulose) (HPC)

Q: Which results are given for CN(C)CC1(C)C(=O)N(C)C(=O)N(C2CCCCC2)C1=O (stereo not given)?
A: T/C (dose: 25.0 mg/kg/injection, schedule: Q01DX009 (ip), vehicle: saline with Tween-80): 100 % of control; T/C [1]: 100 % of control; T/C (dose: 50.0 mg/kg/injection, schedule: Q01DX009 (ip), vehicle: saline with Tween-80): 107 % of control; T/C [2]: 104 % of control and 105 % of control; T/C (dose: 100.0 mg/kg/injection, schedule: Q01DX009 (ip), vehicle: saline with Tween-80): 107 % of control; T/C [3]: 113 % of control; T/C (dose: 200.0 mg/kg/injection, schedule: Q01DX009 (ip), vehicle: saline with Tween-80): 117 % of control; T/C [4]: 122 % of control

Q: Which results are given for C=C(C)C12OC1[C@@]1(C)C(=CC2=O)CCC(O)[C@@H]1C (stereo not given in full)?
A: T/C (dose: 20.0 mg/kg/injection, schedule: Q01DX005 (ip), vehicle: saline): 101 % of control; T/C (dose: 40.0 mg/kg/injection, schedule: Q01DX005 (ip), vehicle: saline): 104 % of control; T/C (dose: 80.0 mg/kg/injection, schedule: Q01DX005 (ip), vehicle: saline): 100 % of control

Q: Which T/C [5] does the source give for COC(=O)C1(CC(=O)c2cc(Cl)ccc2Cl)NC(=S)NC(=O)C1C#N (stereo not given) here?
A: 94 % of control

Q: And the T/C [6]?
A: 92 % of control

Q: And the T/C [7]?
A: 95 % of control

Q: Which results are given for CC1(C)C2CC=C(C[P+](c3ccccc3)(c3ccccc3)c3ccccc3)C1C2 (stereo not given)?
A: T/C (dose: 1.25 mg/kg/injection, schedule: Q01DX009 (ip), vehicle: saline with Tween-80): 119 % of control; T/C (dose: 2.5 mg/kg/injection, schedule: Q01DX009 (ip), vehicle: saline with Tween-80): 119 % of control

Q: What does the source list for CCC(C)/C(=C\C#N)NCCCN/C(=C/C#N)C(C)CC (stereo not given)?
A: T/C (dose: 3.75 mg/kg/injection, schedule: Q01DX005 (ip), vehicle: Klucel + Tween-80): 100 % of control; T/C (dose: 7.5 mg/kg/injection, schedule: Q01DX005 (ip), vehicle: Klucel + Tween-80): 109 % of control; T/C (dose: 15.0 mg/kg/injection, schedule: Q01DX005 (ip), vehicle: Klucel + Tween-80): 92 % of control and 98 % of control; T/C (dose: 60.0 mg/kg/injection, schedule: Q01DX005 (ip), vehicle: Klucel + Tween-80): 86 % of control; T/C (dose: 120.0 mg/kg/injection, schedule: Q01DX005 (ip), vehicle: Klucel (hydroxypropylcellulose) (HPC)): 88 % of control

Q: CCCCOC(C(=O)OCCN(CC)CC)(c1ccccc1)c1ccccc1 was tested. Which T/C [8] did it give?
A: 108 % of control

Q: What about the T/C [9] of the same molecule?
A: 100 % of control

Q: CC(C)(C)N(C(=O)OCC1c2ccccc2-c2ccccc21)C(CO)C(=O)O (stereo not given) was tested. Which T/C [8] did it give?
A: 100 % of control

Q: What about the T/C [9] of the same molecule?
A: 107 % of control

Q: Which results are given for OC1CC2CCC(C1)N2 (stereo not given)?
A: T/C (dose: 60.0 mg/kg/injection, schedule: Q01DX005 (ip), vehicle: saline): 100 % of control; T/C [10]: 96 % of control

Q: With Cc1cc2nc(NN=O)sc2cc1C as the molecule, how does the T/C (dose: 3.12 mg/kg/injection, schedule: Q01DX009 (ip), vehicle: water) read?
A: 109 % of control

Q: And the T/C (dose: 6.25 mg/kg/injection, schedule: Q01DX009 (ip), vehicle: water)?
A: 97 % of control

Q: What about the T/C (dose: 12.5 mg/kg/injection, schedule: Q01DX009 (ip), vehicle: water) of the same molecule?
A: 106 % of control

Q: What about the T/C (dose: 25.0 mg/kg/injection, schedule: Q01DX009 (ip), vehicle: water) of the same molecule?
A: 104 % of control (2×) and 97 % of control

Q: And the T/C (dose: 50.0 mg/kg/injection, schedule: Q01DX009 (ip), vehicle: water)?
A: 102 % of control and 103 % of control and 108 % of control

Q: What about the T/C (dose: 100.0 mg/kg/injection, schedule: Q01DX009 (ip), vehicle: water) of the same molecule?
A: 123 % of control

Q: Which results are given for CNC(=S)N/N=C/Cn1ccc(=O)[nH]c1=O?
A: T/C [8]: 89 % of control; T/C [9]: 90 % of control

Q: Which T/C [2] does the source give for N#CC(C#N)=C1SCCCS1 here?
A: 105 % of control

Q: What about the T/C [3] of the same molecule?
A: 95 % of control

Q: What about the T/C [4] of the same molecule?
A: 98 % of control

Q: What does the source list for Nc1ccc(S(=O)O)cc1?
A: T/C (dose: 100.0 mg/kg/injection, schedule: Q04DX003 (ip), vehicle: saline with Tween-80): 100 % of control; T/C (dose: 200.0 mg/kg/injection, schedule: Q04DX003 (ip), vehicle: saline with Tween-80): 100 % of control; T/C (dose: 400.0 mg/kg/injection, schedule: Q04DX003 (ip), vehicle: saline with Tween-80): 100 % of control

Q: For CCOC(=O)/C=C1\CONC(c2ccc(OC)cc2)=N1, which T/C [5] is on record?
A: 106 % of control

Q: What about the T/C [6] of the same molecule?
A: 97 % of control

Q: And the T/C [7]?
A: 105 % of control

Q: How did the T/C (dose: 100.0 mg/kg/injection, schedule: Q04DX002 (ip), vehicle: saline with Tween-80) turn out when O=C1C=CCCCC1(c1ccccc1)c1ccccc1 was run?
A: 96 % of control

Q: And the T/C (dose: 200.0 mg/kg/injection, schedule: Q04DX002 (ip), vehicle: saline with Tween-80)?
A: 96 % of control

Q: What about the T/C (dose: 400.0 mg/kg/injection, schedule: Q04DX002 (ip), vehicle: saline with Tween-80) of the same molecule?
A: 96 % of control

Q: Which results are given for COc1cc2c(c(OC)c1OC)-c1ccc(OC)c(=O)cc1C(=O)CC2?
A: T/C (dose: 0.62 mg/kg/injection, schedule: Q01DX009 (ip), vehicle: Klucel (hydroxypropylcellulose) (HPC)): 115 % of control; T/C (dose: 5.0 mg/kg/injection, schedule: Q01DX009 (ip), vehicle: Klucel (hydroxypropylcellulose) (HPC)): 157 % of control

Q: Which T/C (dose: 30.0 mg/kg/injection, schedule: Q01DX005 (ip), vehicle: saline with Tween-80) does the source give for CN(c1ccccc1)c1c(Cl)c(=O)oc2c1ccc1occc12 here?
A: 103 % of control

Q: And the T/C [5]?
A: 106 % of control

Q: And the T/C [10]?
A: 96 % of control

Q: And the T/C [7]?
A: 105 % of control

Q: And the T/C (dose: 240.0 mg/kg/injection, schedule: Q01DX005 (ip), vehicle: saline)?
A: 103 % of control

Q: Which T/C (dose: 12.5 mg/kg/injection, schedule: Q01DX005 (ip), vehicle: saline with Tween-80) does the source give for CC(C)(C)C(S)CS (stereo not given) here?
A: 104 % of control

Q: What about the T/C (dose: 25.0 mg/kg/injection, schedule: Q01DX005 (ip), vehicle: saline with Tween-80) of the same molecule?
A: 104 % of control

Q: What about the T/C [11] of the same molecule?
A: 101 % of control and 103 % of control

Q: With [Se]=[Nb]=[Se] as the molecule, how does the T/C (dose: 60.0 mg/kg/injection, schedule: Q01DX005 (ip), vehicle: acid diluted with saline) read?
A: 89 % of control

Q: What about the T/C (dose: 120.0 mg/kg/injection, schedule: Q01DX005 (ip), vehicle: acid diluted with saline) of the same molecule?
A: 93 % of control

Q: What about the T/C (dose: 240.0 mg/kg/injection, schedule: Q01DX005 (ip), vehicle: acid diluted with saline) of the same molecule?
A: 90 % of control

Q: What does the source list for CC(NC(=O)C(CO)NC(=O)OCc1ccccc1)C(=O)O (stereo not given)?
A: T/C [8]: 118 % of control; T/C [9]: 97 % of control; T/C [12]: 108 % of control

Q: How did the T/C (dose: 50.0 mg/kg/injection, schedule: Q01DX009 (ip), vehicle: suspension in saline) turn out when COC1NC(=S)N(C2CCCCC2)C1(C)C (stereo not given) was run?
A: 97 % of control

Q: What about the T/C (dose: 100.0 mg/kg/injection, schedule: Q01DX009 (ip), vehicle: suspension in saline) of the same molecule?
A: 97 % of control

Q: And the T/C (dose: 200.0 mg/kg/injection, schedule: Q01DX009 (ip), vehicle: suspension in saline)?
A: 100 % of control

Q: Which results are given for O=CNNc1ccc2nnc(Cl)n2n1?
A: T/C (dose: 100.0 mg/kg/injection, schedule: Q04DX003 (ip), vehicle: saline): 101 % of control; T/C (dose: 200.0 mg/kg/injection, schedule: Q04DX003 (ip), vehicle: saline): 97 % of control; T/C (dose: 400.0 mg/kg/injection, schedule: Q04DX003 (ip), vehicle: saline): 93 % of control

Q: For CC(C)c1nc(C=O)c(C=O)n1Cc1ccccc1, which T/C [5] is on record?
A: 97 % of control

Q: And the T/C [6]?
A: 92 % of control

Q: What about the T/C [7] of the same molecule?
A: 97 % of control

Q: What does the source list for COC(=O)C1(CC(=O)c2ccccc2)NC(=S)NC(=O)C1C#N (stereo not given)?
A: T/C [5]: 103 % of control; T/C [6]: 98 % of control; T/C [7]: 98 % of control

Q: With CN(C)C1=NC(NC2CCCCC2)(N(C)C)OC(N(C)C)=N1 (stereo not given) as the molecule, how does the T/C (dose: 25.0 mg/kg/injection, schedule: Q01DX005 (ip), vehicle: Klucel (hydroxypropylcellulose) (HPC)) read?
A: 105 % of control

Q: What about the T/C [8] of the same molecule?
A: 96 % of control

Q: And the T/C [9]?
A: 100 % of control

Q: CC(=O)OC1=CC(=O)N(C(=O)c2ccc(Cl)cc2)C1 was tested. Which T/C (dose: 50.0 mg/kg/injection, schedule: Q01DX009 (ip), vehicle: Klucel (hydroxypropylcellulose) (HPC)) did it give?
A: 109 % of control

Q: And the T/C (dose: 100.0 mg/kg/injection, schedule: Q01DX009 (ip), vehicle: Klucel (hydroxypropylcellulose) (HPC))?
A: 115 % of control

Q: And the T/C (dose: 200.0 mg/kg/injection, schedule: Q01DX009 (ip), vehicle: Klucel (hydroxypropylcellulose) (HPC))?
A: 115 % of control

Q: For CC1C(=O)C(C)C(c2ccccc2Cl)OC1c1ccccc1Cl (stereo not given), which T/C [2] is on record?
A: 112 % of control

Q: What about the T/C [3] of the same molecule?
A: 102 % of control

Q: And the T/C [4]?
A: 96 % of control

Q: What does the source list for C[N+]1(CCC(=O)c2ccccc2)CCCCC1?
A: T/C (dose: 12.5 mg/kg/injection, schedule: Q01DX009 (ip), vehicle: saline): 97 % of control; T/C [1]: 107 % of control

Q: For O=C(O)CC(Sc1ccc(Cl)cc1)C(=O)Nc1ccccc1 (stereo not given), which T/C [5] is on record?
A: 99 % of control

Q: And the T/C [6]?
A: 95 % of control

Q: What about the T/C [7] of the same molecule?
A: 98 % of control

Q: What does the source list for N#C/C(=N\NC(=O)c1cccnc1)c1ccc(Cl)cc1?
A: T/C [11]: 92 % of control; T/C (dose: 100.0 mg/kg/injection, schedule: Q01DX005 (ip), vehicle: saline with Tween-80): 92 % of control; T/C (dose: 200.0 mg/kg/injection, schedule: Q01DX005 (ip), vehicle: saline with Tween-80): 101 % of control

Q: COc1ccc2oc3cc4c(c(O)c3c(=O)c2c1CC=C(C)C)C=CC(C)(C)O4 was tested. Which T/C [8] did it give?
A: 88 % of control

Q: What about the T/C [9] of the same molecule?
A: 86 % of control

Q: And the T/C [12]?
A: 87 % of control
